Measurements from US20230414515A1, “ACETIC ACID AS PROCESSING AID IN SPRAY DRYING FOR BASIC DRUGS” (Lonza Bend Inc., priority 2020, published 2023).
≈ marks a conversion by molar mass, not a printed value. One block for each compound: values may come before it.

Assays:
[1] = Solubility of dasatinib in methanol (saturated solution, TGA); assay type: physicochemical; settings: organic solvent or mixture, thermodynamic from solid, 25° C., analyzed by TGA
Description: Dasatinib free base was recrystallized from methanol and dried. Crystalline dasatinib was added in excess to methanol to form a saturated solution at 25° C. The solution was analyzed by TGA and found to contain 3.1 mg/mL dasatinib.

[2] = cited from earlier work; for basic pKa: pH at which half of the basic sites are protonated
[3] = Gefitinib solubility in methanol and methanol:water mixtures without acetic acid (HPLC); assay type: physicochemical; settings: thermodynamic from solid, 24 hour stirring
Description: Crystalline gefitinib was added in excess to methanol and methanol:water mixtures to form saturated solutions at 20° C. After 24 hour of stirring, 1 mL aliquots were centrifuged at 10′000 RCF for 3 min.

[4] = physchem; settings: 20 °C, organic solvent or mixture, thermodynamic from solid
Description: The solubility of gefitinib in solvent mixtures with acetic acid were obtained by suspending 300 mg of crystalline gefitinib in 5 mL of solvent (methanol:water) containing 150 microliters of acetic acid at 20° C. (3.9 eq of acetic acid). […] The solubility in 100% methanol with acetic acid was determined after separating undissolved solids by centrifugation of a 1 mL aliquot at 10′000 RCF for 3 min after 1 hour of stirring. The supernatant was then analyzed for gefitinib concentration by HPLC.

solubility [1]: 3100 µg/mL (≈ 6.35 mM)
SMILES: Cc1nc(Nc2ncc(C(=O)Nc3c(C)cccc3Cl)s2)cc(N2CCN(CCO)CC2)n1 [dasatinib]
basic pKa [2]: 7.2

SMILES: N#Cc1ccnc(N2C(=O)CC[C@H]2C(=O)N(c2cncc(F)c2)[C@H](C(=O)NC2CC(F)(F)C2)c2ccccc2Cl)c1 [Ivosidenib, ivosidenib]
basic pKa [2]: ca. 1.81

SMILES: CCC[C@H](NC(=O)[C@@H]1[C@H]2CCC[C@H]2CN1C(=O)[C@@H](NC(=O)[C@@H](NC(=O)c1cnccn1)C1CCCCC1)C(C)(C)C)C(=O)C(=O)NC1CC1 [VX-950, Telaprevir]
basic pKa [2]: −0.69

SMILES: COc1ccc(-n2nc(C(N)=O)c3c2C(=O)N(c2ccc(N4CCCCC4=O)cc2)CC3)cc1 [Apixaban, apixaban]
acidic pKa ([2]; pH at which half of the acidic site is deprotonated): ca. 13 | basic pKa [2]: < 2

solubility at 24 h ([3]; methanol:water 60:40, organic solvent or mixture, Methanol:H2O 60:40, 20° C.): 2100 µg/mL (≈ 4.7 mM) | solubility at 24 h ([3]; methanol:water 70:30, organic solvent or mixture, Methanol:H2O 70:30, 20° C.): 4000 µg/mL (≈ 8.95 mM) | solubility at 24 h ([3]; methanol:water 80:20, organic solvent or mixture, Methanol:H2O 80:20, 20° C.): 6300 µg/mL (≈ 14.1 mM) | solubility at 24 h ([3]; methanol:water 90:10, organic solvent or mixture, Methanol:H2O 90:10, 20° C.): 6000 µg/mL (≈ 13.4 mM) | solubility at 24 h ([3]; organic solvent or mixture, Methanol:H2O 100:0, 20° C.): 5200 µg/mL (≈ 11.6 mM) | solubility at 1 h ([4]; methanol with acetic acid): 31000 µg/mL (≈ 69.4 mM) | solubility ([4]; methanol:water 60:40 with acetic acid): > 60000 µg/mL | solubility ([4]; methanol:water 70:30 with acetic acid): > 60000 µg/mL | solubility ([4]; methanol:water 80:20 with acetic acid): > 60000 µg/mL | solubility ([4]; methanol:water 90:10 with acetic acid): > 60000 µg/mL | solubility ([4]; methanol:water mixtures with acetic acid): ≥ 60000 µg/mL
SMILES: COc1cc2ncnc(Nc3ccc(F)c(Cl)c3)c2cc1OCCCN1CCOCC1 [gefitinib]
basic pKa [2]: 6.8
